Measurements taken from patent US8821847B2, “Perfume compositions” (Givaudan Nederland Services B.V., priority 2006, dated 2014).

System: P. vulgaris NCTC4175
Test: Urease assay: effect of fragrance on ammonia production (pH of urea-supplemented microbial suspension)
Format: cell-based
Conditions: result in words
Experimental: Urease Assay—Estimation of Fragrance and Fragrance Ingredients Effect on Ammonia Production The method adopted was based on the rapid method devised by C. A. Stuart, Elizabeth van Stratum and Robert Rustigan Further Studies on Urease Production by Proteus and Related Organisms J. Bacteriol. 1945, 49:437-444. SSR Medium: 380 ml distilled water, 364 mg KH2PO4, 380 mg Na2HPO4, 8 g Urea, 40 mg Yeast extract, 20 ml 0.02% phenol red indicator, pH 6.8, solution filter sterilised. Culture: Liquid culture of P. vulgaris NCTC4175 was prepared by adding loops of fresh culture from solid media (Tryptone Soya Agar) to sterile 0.1% special peptone solution. Absorbance of culture was adjusted to be OD610 nm>2.3 Fragrances were aseptically prepared at 2500 ppm in medium in duplicate (5 ml volumes) using solubiser Synperonic 91/10 at ratio of 1:2 fragrance: solubiliser. In addition 5 ml volumes of positive and negative controls were prepared. Positive controls and all test solutions were inoculated by adding 200 μl of prepared culture, mixed and incubated for 24 hours @37° C. No culture was added to the negative growth controls. Initially solutions were orange in colour. Urease activity can be noted by the production of a purple/red colour. The degree of urease activity/ammonia production was assessed by pH electrode.

In the case of `CCC(=O)N(CC)c1cccc(C)c1` [N-ethyl-N-(3-methylphenyl)propananoide, N-ethyl-N-(3-methylphenyl)propanamide], the urease inhibitory efficacy is reported as “highly active”.
